According to publication PMC2746281 (PLoS ONE, 2009):
Read-outs that look alike come from different tables or passages of the source.

Columns and labels:
[1] = biological target: T1, KIT Δ27 (murine) (Mus musculus, UniProt P05532, DEL551-559); assay: Ba/F3 cell proliferation (WST-1), KIT Δ27; conditions: Ba/F3 cells expressing the enzyme, read-out: Cell-based assay IC50, KIT Δ27 (murine)
T1 construct: expressed in transfected cells; host or cells: Ba/F3

[2] = biological target: T2, Bmx (Homo sapiens, UniProt P51813); assay: Recombinant kinase ELISA assay, Bmx; format: biochemical; conditions: recombinant human enzyme; ELISA-based assay, poly(Glu,Tyr 4:1) substrate
T2 construct: Bmx (2–675; BC016652); 6xHN (N); made in house; host or cells: baculovirus, Sf9 insect cells
Experimental: (§1) Full details for the generation of recombinant human KIT intracellular domain and other protein kinases (including Lyn, platelet derived growth factor receptor β, epidermal growth factor receptor, fibroblast growth factor receptor 1, Src, HCK, PYK, FES, Btk, Bmx, c-Ret, c-Fms, Syk, and c-Met) are provided in the Supplemental Methods (see Supporting Information; Methods S1). Experiments on ABL1, Akt1, protein kinase C-α, insulin-like growth factor receptor 1, and Pim1 were carried out by Proqinase (Germany). All other recombinant protein kinases were performed in-house using an enzyme-linked immunoassay; experimental details are provided in the Supplemental Methods (see Supporting Information; Methods S1).
The sequences encoding PDGF receptor β (residues 554–1106; GenBank accession no. BC032224), Lyn B (2–583; accession no. BC059394), fibroblast growth factor receptor 1 (572–959; accession no. BC018128), Src (2–536; accession no. BC011566), Btk (2–659; accession no. BC109079), Bmx (2–675; accession no. BC016652), c-Ret (713–1114; accession no. BC004257), c-Fms (538–972; BC047531), Syk (2–612; BC011399), Hck (2-526; accession no. BC014435), Fes (2-822; accession no. BC035357), PYK2 (2-1006; accession no. BC042599) and c-Met (949–1398; accession no. lifeseq3489592) were amplified by PCR from IMAGE cDNA clones purchased from Openbiosystems. […]

[3] = biological target: recombinant human KIT (Homo sapiens, UniProt P10721)
Experimental: Tyrosine phosphorylation by KIT was assayed by measuring the incorporation of phosphate into poly(Glu,Tyr 4∶1). […] Recombinant human KIT tyrosine kinase assays were performed using an ELISA-based assay with poly(Glu,Tyr 4∶1) as a substrate.
A 96-well microtitre plate (Immulon 2HB; ThermoLifeScience, Finland) was coated overnight with 0.25 mg/ml poly(Glu,Tyr 4:1), rinsed twice with 250 µl of washing buffer (10 mM phosphate-buffered saline [pH 7.4] and 0.05% Tween 20) and dried for 2 hours at room temperature. […] Reactions were initiated upon introduction of the enzyme and terminated with the addition of one reaction volume (50 μl) of 100 mM EDTA per 5 M urea mix. Plates were washed three times and incubated with 1:30,000 horseradish peroxidase-conjugated anti-phosphotyrosine monoclonal antibody (Sigma-Aldrich, France), then washed three times and incubated with tetramethylbenzidine. The final reaction product was quantified by spectrophotometry at 450 nm.

[4] = tested on: murine bone marrow mast cell (BMMC); assay: Transwell migration of BMMC in response to rmSCF; format: cell-based; conditions: Mus musculus, 4 hours, read-out: inhibition of migration of SCF-stimulated BMMCs relative to the control
Experimental: Migration of murine BMMCs was evaluated using a transwell migration assay [35]. […] Filters were then placed in wells containing 600 µL of chemotaxis buffer supplemented with or without 10 ng/mL of rmSCF, for stimulated or unstimulated BMMCs, respectively. After 4 hours incubation at 37°C in 5% CO2, cells from the bottom chamber were resuspended and counted using a FACS Scan over 20 seconds. All assays were performed in triplicate and counts were repeated twice for each well. For tyrosine kinase inhibitor treatment, 1×10^7 mast cells were pretreated for 1.5 hours at 37°C in complete medium (OPTI MEM, 10% foetal calf serum (FCS), 1% antibiotics and 2-mercaptoethanol 5×10^−5 M, 10 ng/ml rIL3) either with 1 µM of inhibitor or an equivalent volume of DMSO.

[5] = tested on: human cord-blood-derived mast cells (CBMC); assay: TNF-α release by IgE-anti IgE-activated CBMC (ELISA); format: cell-based; conditions: Mast cell, 4 hours of stimulation
Experimental: (see Supporting Information; Methods S1). […] Assays of β-hexosaminidase release and TNF-α release were made by stimulating the CBMC with 1 µg/ml of goat anti-human IgE (Vector Laboratories) for 30 minutes or 4 hours, respectively. β-hexosaminidase was measured in the supernatant and in the sonicated cell pellets and its net release calculated. For TNF-α determination, the cell-free supernatants were collected by centrifugation and frozen at −80°C until determination of mediator content by the use of a specific ELISA kit according to manufacturer's instructions (Coulter, France). All assays were performed in duplicate and counts were repeated twice for each well.
Human CBMC were produced by long-term culture of CD34+ progenitors purified from normal cord-blood. […] At the beginning of the culture, rhIL-3 (1 ng/ml) (R&D Systems Europe, France) was also added to induce maximal expansion of haematopoietic progenitors. After 3 days the IL-3 was removed and 4 days later cells were transferred to a complete serum-free medium containing rmSCF at 100 ng/ml, which was renewed every 7 days thereafter. After 8 weeks in culture ≥99% of the cells were identified as being mast cells by May-Grünwald-Giemsa staining of cytocentrifuged samples.

[6] = biological target: Focal adhesion kinase (Homo sapiens, UniProt Q05397); assay: Recombinant kinase ELISA assay, focal adhesion kinase; format: biochemical; conditions: recombinant human enzyme; ELISA-based assay, poly(Glu,Tyr 4:1) substrate
Experimental: as §1

[7] = biological target: PDGFRβ (Homo sapiens, UniProt P09619); assay: Ba/F3 cell proliferation (WST-1), PDGFRβ; set-up: expressed in transfected cells; host or cells: Ba/F3 (general description of the cell system; not repeated for this kinase); conditions: Ba/F3 cells expressing the enzyme, read-out: Cell-based assay IC50, PDGFRβ
[8] = tested on: mouse lymphoma; assay: Mouse lymphoma assay; format: cell-based; conditions: our unpublished results
[9] = biological target: T3, Akt1 (Homo sapiens, UniProt P31749); assay: Recombinant kinase screen (Proqinase), Akt1; format: biochemical; conditions: recombinant human enzyme; single experiment, kinase screen by Proqinase
T3 construct: purchased Proqinase (Germany)
Experimental: as §1

[10] = tested on: primary BMMCs; assay: IL-3-stimulated proliferation of primary BMMCs; format: cell-based, mice; conditions: Mus musculus, BMMC, primary murine BMMCs
Experimental: (B) western blotting analysis of HMC-1α155 tyrosine phosphorylation. […] (D) Western blotting analysis of BMMC tyrosine phosphorylation. Cell proliferation was assessed by WST-1 colorimetric assay. […] MW = molecular weight.

Chain of recombinant human KIT (P10721 567-976): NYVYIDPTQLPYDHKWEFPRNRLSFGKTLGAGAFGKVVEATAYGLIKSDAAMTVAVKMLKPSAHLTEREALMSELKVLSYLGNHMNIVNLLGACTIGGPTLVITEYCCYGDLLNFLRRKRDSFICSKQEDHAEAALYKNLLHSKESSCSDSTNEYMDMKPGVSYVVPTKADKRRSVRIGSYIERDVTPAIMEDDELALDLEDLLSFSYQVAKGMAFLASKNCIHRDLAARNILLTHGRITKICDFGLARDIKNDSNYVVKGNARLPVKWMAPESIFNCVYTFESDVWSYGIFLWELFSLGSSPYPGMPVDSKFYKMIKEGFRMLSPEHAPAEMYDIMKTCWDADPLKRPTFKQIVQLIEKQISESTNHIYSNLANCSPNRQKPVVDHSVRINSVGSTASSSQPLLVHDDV
Chain of Focal adhesion kinase (Q05397 whole entry): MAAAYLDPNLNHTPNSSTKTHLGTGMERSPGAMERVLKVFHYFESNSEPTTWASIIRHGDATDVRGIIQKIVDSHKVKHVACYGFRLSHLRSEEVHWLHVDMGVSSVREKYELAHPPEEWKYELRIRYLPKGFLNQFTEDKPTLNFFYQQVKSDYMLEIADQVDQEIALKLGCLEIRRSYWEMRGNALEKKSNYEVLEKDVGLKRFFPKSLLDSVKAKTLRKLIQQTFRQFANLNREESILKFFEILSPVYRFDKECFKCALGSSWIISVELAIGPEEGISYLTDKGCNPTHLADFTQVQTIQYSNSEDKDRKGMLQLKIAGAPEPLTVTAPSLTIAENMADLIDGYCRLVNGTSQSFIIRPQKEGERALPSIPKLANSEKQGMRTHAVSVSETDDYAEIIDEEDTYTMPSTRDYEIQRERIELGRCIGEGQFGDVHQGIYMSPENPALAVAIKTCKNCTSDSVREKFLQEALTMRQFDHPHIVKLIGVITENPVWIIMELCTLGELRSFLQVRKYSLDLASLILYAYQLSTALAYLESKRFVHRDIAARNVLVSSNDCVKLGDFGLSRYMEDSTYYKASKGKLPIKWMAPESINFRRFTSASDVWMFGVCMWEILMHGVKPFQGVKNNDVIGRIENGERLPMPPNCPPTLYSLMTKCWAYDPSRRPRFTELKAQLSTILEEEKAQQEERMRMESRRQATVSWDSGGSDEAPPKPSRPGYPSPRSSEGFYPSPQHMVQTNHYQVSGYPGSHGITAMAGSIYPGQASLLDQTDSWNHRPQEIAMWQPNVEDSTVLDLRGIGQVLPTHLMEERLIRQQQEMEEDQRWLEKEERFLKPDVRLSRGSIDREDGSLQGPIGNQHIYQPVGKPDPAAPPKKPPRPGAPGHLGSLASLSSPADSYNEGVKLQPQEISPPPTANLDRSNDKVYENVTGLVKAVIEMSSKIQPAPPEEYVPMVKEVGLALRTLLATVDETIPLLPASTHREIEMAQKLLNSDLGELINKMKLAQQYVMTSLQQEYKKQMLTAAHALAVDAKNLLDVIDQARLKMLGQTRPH
Chain of PDGFRβ (P09619 33-1106): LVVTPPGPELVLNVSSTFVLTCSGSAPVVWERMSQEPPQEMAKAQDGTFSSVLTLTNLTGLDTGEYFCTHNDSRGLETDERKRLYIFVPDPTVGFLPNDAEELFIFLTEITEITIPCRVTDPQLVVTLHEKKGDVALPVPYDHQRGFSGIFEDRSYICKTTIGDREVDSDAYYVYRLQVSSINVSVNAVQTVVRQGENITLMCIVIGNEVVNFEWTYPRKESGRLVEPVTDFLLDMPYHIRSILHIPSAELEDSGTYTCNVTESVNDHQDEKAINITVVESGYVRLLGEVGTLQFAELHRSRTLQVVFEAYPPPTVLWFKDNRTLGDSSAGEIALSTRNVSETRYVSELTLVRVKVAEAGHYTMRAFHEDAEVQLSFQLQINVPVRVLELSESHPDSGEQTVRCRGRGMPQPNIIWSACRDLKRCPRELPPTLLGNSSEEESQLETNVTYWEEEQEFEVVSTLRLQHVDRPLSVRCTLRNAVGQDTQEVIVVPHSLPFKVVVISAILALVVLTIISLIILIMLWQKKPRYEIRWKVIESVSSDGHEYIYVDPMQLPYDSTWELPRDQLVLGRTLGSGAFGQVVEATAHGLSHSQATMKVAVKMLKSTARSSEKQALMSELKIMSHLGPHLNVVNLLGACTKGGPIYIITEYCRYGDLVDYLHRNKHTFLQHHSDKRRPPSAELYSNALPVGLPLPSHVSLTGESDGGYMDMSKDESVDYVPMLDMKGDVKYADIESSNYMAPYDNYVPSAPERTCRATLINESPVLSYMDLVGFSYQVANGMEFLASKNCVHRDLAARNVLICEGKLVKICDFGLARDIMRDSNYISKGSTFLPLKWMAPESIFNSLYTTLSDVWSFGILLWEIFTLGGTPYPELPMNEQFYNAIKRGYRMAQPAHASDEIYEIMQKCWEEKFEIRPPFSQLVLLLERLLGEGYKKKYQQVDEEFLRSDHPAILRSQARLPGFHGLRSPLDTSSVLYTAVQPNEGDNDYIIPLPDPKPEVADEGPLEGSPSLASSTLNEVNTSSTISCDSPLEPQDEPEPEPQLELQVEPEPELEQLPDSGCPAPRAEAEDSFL
T1 sequence (P05532 with tags, fused parts or gaps isoform P05532-2 DEL547-555): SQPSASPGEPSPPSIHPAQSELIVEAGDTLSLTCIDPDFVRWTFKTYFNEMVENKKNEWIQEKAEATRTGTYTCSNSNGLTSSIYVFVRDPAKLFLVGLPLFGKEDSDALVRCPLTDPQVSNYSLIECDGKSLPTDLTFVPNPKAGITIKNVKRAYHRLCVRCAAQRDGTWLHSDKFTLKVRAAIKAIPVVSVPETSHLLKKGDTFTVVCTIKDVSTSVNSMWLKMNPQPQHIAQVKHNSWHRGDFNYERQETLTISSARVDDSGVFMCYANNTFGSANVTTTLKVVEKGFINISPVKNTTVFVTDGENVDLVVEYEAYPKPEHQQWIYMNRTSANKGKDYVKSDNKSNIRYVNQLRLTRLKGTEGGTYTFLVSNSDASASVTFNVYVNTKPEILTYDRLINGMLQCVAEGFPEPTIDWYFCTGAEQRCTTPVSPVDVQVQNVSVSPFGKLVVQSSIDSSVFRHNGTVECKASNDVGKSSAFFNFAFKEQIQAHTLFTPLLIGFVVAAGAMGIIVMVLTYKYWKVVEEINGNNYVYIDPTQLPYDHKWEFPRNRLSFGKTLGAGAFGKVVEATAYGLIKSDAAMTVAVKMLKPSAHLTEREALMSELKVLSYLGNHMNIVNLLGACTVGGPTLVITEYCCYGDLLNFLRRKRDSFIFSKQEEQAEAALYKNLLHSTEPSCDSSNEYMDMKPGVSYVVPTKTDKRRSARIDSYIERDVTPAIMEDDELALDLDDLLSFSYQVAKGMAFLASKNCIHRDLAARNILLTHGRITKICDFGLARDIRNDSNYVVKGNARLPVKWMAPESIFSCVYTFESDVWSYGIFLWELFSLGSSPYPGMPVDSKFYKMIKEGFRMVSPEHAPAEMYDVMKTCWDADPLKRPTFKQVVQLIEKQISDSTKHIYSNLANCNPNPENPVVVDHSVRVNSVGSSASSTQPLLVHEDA
T2 sequence (P51813 2-675): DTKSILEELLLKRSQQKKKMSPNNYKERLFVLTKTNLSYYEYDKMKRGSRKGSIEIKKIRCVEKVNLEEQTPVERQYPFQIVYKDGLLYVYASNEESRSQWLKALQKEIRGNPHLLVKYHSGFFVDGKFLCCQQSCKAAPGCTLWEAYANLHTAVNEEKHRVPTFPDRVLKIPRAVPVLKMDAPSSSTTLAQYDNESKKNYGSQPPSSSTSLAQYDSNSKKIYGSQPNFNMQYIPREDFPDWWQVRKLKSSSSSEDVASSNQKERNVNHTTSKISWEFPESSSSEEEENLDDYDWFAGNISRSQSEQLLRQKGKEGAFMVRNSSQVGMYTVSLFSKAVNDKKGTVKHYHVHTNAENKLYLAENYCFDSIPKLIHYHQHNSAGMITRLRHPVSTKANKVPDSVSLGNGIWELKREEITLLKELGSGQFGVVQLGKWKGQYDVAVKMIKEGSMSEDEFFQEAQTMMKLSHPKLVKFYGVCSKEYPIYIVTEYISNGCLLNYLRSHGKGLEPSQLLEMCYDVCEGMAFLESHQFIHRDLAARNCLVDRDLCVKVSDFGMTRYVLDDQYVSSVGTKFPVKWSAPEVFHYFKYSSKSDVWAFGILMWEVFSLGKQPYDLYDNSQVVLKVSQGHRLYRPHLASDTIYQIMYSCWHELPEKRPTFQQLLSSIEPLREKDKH
T3 sequence (P31749 whole entry): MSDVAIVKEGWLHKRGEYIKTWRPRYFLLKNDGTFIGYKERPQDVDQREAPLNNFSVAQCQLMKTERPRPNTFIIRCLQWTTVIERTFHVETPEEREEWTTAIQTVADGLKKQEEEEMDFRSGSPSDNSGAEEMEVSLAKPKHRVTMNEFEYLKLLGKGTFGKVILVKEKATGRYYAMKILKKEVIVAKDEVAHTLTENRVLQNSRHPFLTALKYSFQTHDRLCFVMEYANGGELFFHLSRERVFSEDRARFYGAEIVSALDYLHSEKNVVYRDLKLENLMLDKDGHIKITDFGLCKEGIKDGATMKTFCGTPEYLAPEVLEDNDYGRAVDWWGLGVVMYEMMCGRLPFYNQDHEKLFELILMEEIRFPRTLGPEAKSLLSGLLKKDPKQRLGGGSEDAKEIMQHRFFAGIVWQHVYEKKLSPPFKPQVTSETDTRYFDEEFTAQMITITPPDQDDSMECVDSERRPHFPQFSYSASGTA

For `CS(=O)(=O)O.CS(=O)(=O)O.Cc1ccc(NC(=O)c2ccc(CN3CCN(C)CC3)cc2)cc1Nc1nc(-c2cccnc2)cs1` [masitinib, 4-(4-methylpiperazin-1-ylmethyl)-N-[4-methyl-3-(4-pyridin-3ylthiazol-2-ylamino)phenyl]benzamide-mesylate methane sulfonic acid salt], the IC50 [1] was 0.005 ± 0.0003 µM, the IC50 [2] was over 10 µM and the “mechanism of inhibition against ATP” value ([3]; concentrations ≤500 nM) was “competitive inhibitor against ATP”. For the same compound, the “mechanism of inhibition against ATP” value ([3]; higher concentrations (>1 µM)) was “mixed mechanism of inhibition against ATP”, the inhibition at 1 µM [4] was about 79.6% and the inhibition at 0.1 µM ([5]; 0.1 µM) was 16%. For the same compound, the inhibition at 1 µM ([5]; 1.0 µM) was 40%, the inhibition at 10 µM ([5]; 10 µM) was 68% and the IC50 [6] was over 10 µM. The IC50 [7] was 0.05 ± 0.02 µM, the “mutagenicity in a mouse lymphoma assay” value [8] was “not mutagenic” and the IC50 [9] was over 10 µM. For the same compound, the IC50 [10] was over 10 µM.
